Experimental data reported in patent publication US8378071B2, “Peptide epitopes of VEGFR-2/KDR that inhibit angiogenesis” (The United States of America as Represented by the …, priority 2005, dated 2013).

Columns and labels:
HLA-A2 = biological target: T1, HLA-A2 (Homo sapiens, UniProt P04439, D140Y/D185E/D98H/E176V/E277Q/G131W/G231S/I119V/I121R/I166T/I218V/L300P/L318F/N151K/N90K/P208A/P217A/Q86G/Q94H/R138H/R169H/T345S); experiment: T2 binding assay (HLA-A2 stabilization); settings: T2 cells, FIG. 7
T1 construct: endogenous in cells; host or cells: T2 cells
Source text: The ability of any of the above described peptides to bind MHC Class I can be confirmed using assays available in the art. For example, the ability of a murine VEGFR-2/KDR peptide to bind a mouse Class I molecule, such as H-2 Db can be determined in a MHC stabilization assay employing RMA-S cells as described in Lyman et al., J. Virol. 76:3125-3134, 2002, and in the EXAMPLES Section below. The ability of a human VEGFR-2/KDR peptide to bind a human Class I molecule, such as an HLA-A2 protein can be evaluated in a T2 MHC binding assay as described by Cerundolo et al., Nature 342:449-452, 1990. In brief, T2 cells are cultured in RPMI1640 with 10% FBS, and grown in 5% CO2 at 37° C. […] The level of stabilized HLA-A2 on the surface of the T2 cells is detected using the pan HLA class I monoclonal antibody W6/32 (European Collection of Animal Cell Cultures (ECACC), Porton Down, Salisbury) that recognizes stabilized HLA-A2 complexes. The primary monoclonal antibody can be labeled or can be detected using, e.g., a labeled goat antimouse IgG (Cambridge Biosciences, Cambridge, United Kingdom) as the second layer. Samples are fixed in 1% paraformaldehyde in PBS prior to analysis and analyzed on a Becton Dickinson FACSCAN®. […]

[1] = test system: IFN-γ secreting spleen cells / DLN cells; experiment: IFN-γ Elispot assay on splenocytes or draining lymph node cells of peptide-vaccinated mice; type: in vivo, C57BL/6 mice; settings: for IFN-γ secreting cells per million fresh DLN cells: stimulated with syngeneic VEGFR-2/KDR expressing H5V cells, FIG. 2C
Source text: FIGS. 2A-C are bar graphs representing the results of IFN-Eli spot assays. Four groups of mice (5 mice per group) were vaccinated with different peptides (KDR1, KDR2, KDR3). Mice were sacrificed, spleen or drained lymph nodes (DLN) cells prepared as described in methods section served as effectors. Syngeneic EL4 cells (3,000 rads) pulsed with peptides or H5V cells after treated with MMC served as stimulators. Irradiated EL4 without peptide or MMC treated allogeneic bEND3 cells as control. Dot bar: EL4 pulsed with irrelevant peptide as negative control; Solid bar: EL4 pulsed with KDR2 or KDR3 respectively; Open bar: EL4 without any peptide; A. Results of fresh spleen cells; B. Results of spleen cells after 1 week restimulation in vitro; C. Cells from fresh drained lymph nodes stimulated with H5V or bEND3 cells.
Mice were immunized with selected peptide, together with murine GM-CSF and anti-mouse CD40 as adjuvants. An emulsion containing 50 μl Incomplete Freud's Adjuvants (IFA, Sigma) with or without 100 […] of peptide and 5 μg murine GM-CSF (Pepro Tech), 20 μg anti-murine CD40 monoclonal antibody (Southern Biotech, Clone number 1C10) was prepared in a final volume of 100 μl. Subcutaneous injections were performed on the tails of the mice with 1 ml syringes and 30 gauge needles. For the Matrigel Plug Assay, two boosts were injected at 4 week intervals.
IFN-γ Elispots assay was performed on draining lymph nodes cells (DLN) or splenocytes collected 2 weeks after vaccination to evaluate the antigen specific immune response against the VEGFR-2/KDR peptides. Elispot plates (Millipore, Bedford, Mass.) were coated with 8 μg of anti-gamma interferon (IFN-γ) antibody per ml in sterile phosphate-buffered saline (PBS) overnight at 4° C. Plates were washed and then blocked with RPMI 1640 with 10% FBS. Fresh splenocytes or cells after 1 week in vitro restimulation were used as effectors. 1 or 5×10^5 effector cells were co-cultured overnight with or without 2×10^5 irradiated (3,000 rads) EL4 cells in 200 μl media at 37° C., 5% CO2 in the presence of appropriate concentration of peptide. When H5V and bEND3 cells in stead of EL4 were used as stimulators, they were treated with 0.1 mg/ml mitomycin C (Sigma, St. Louis) for half an hour at 37° C., then wash three times with PBS. 5×10^4H5V or bEND3 cells were co-cultured overnight with 2×10^5 draining lymph nodes cells. Spots were developed as previously described using biotin-conjugated anti-cytokine antibodies (Endogen, Boston, Mass.) and streptavidin-horseradish peroxidase in 1% BSA-PBS.

H5V endothelial cells = experiment: 4-hour 51Cr release assay, CTLs from immunized mice, endothelial cell targets; type: cell-based, mouse; settings: for Percentage of lyses by induced CTLs, control: control for H5V; for Percentage of lyses by induced CTLs, control / Percentage of lyses by induced CTLs: E:T ratio 50:1; for Lysis of H5V cells and peptide-pulsed EL4 by induced CTLs (in words): not bEND3 or EL4 alone, FIG. 4; for Percentage of lyses by induced CTLs: targets H5V
Experimental: (§1) FIGS. 4A-D are line graphs illustrating the results of standard 4 hr ^51Cr release test. Three weeks after immunization, spleen cells were prepared from immunized mice (4-5 mice per group) and restimulated with vaccinated peptides in a 24-well plate in the presence of RPMI 1640 (Invitrogen) with 10% FCS. 10% T-stim was added 48 hours later into the culture media and the cells were incubated for 5 days at 37° C. The CTL activity was tested in a 4-hour ^51Cr release assay. Target cells include VEGFR-2/KDR+H5V (H-2d) and bEND3 (H-2b) endothelial cells, VEGFR-2/KDR-EL4 cells pulsed with peptides or EL4 alone. The percentage of specific lysis was calculated using the formula: (experimental release−spontaneous release)/(maximum release−spontaneous release)×100. Upper panel: effector cells from mice immunized with KDR2, Lower panel: effectors from KDR3 immunized mice.
(§2) Chromium (^51Cr) Release Assays were used to determine whether T cells identified as binding to VEGFR-2/KDR specifically targeted endothelial cells. Mice were vaccinated twice with 5 μg GM-CSF, 20 μg anti-CD40 and 100 μg peptide per mice. Briefly, spleen cells were prepared from immunized mice (4-5 mice per group) and restimulated with the vaccinated peptides in 24-well plates in RPMI 1640 (Invitrogen) with 10% FCS. Forty-eight hours later, 10% T-stim (BD Bioscience) was added into the culture media. CTL activity was tested in a 4-hour ^51Cr release assay 5 days later. VEGFR-2/KDR+syngeneic H5V (H-2d), allogeneic bEND3 (H-2b) endothelial cells and VEGFR-2/KDR syngeneic EL4 cells pulsed with peptides or EL4 alone served as target cells. The percentage cytotoxicity was calculated using the formula: (experimental release−spontaneous release)/(maximum release−spontaneous release)×100.

[2] = test system: EL4 cells pulsed with peptides; experiment: 4-hour 51Cr release assay, CTLs from immunized mice, EL4 targets; type: cell-based, mouse; settings: E:T ratio 50:1; for Percentage of lyses by induced CTLs, control: control for EL4 pulsed with peptide; for Percentage of lyses by induced CTLs: targets EL4 pulsed with the vaccinated peptide
Experimental: as §1, §2

H-2 Db = biological target: T2, H-2 Db (Mus musculus, UniProt P01899); experiment: RMA-S binding assay (MHC stabilization, flow cytometry); settings: for Concentration at FI=0.5: RMA-S cells loaded 16 to 18 h at 37° C, FI = fluorescence with peptide/without peptide - 1; for Binding to H-2 Db (in words): RMA-S cells, FIG. 1
T2 construct: enhance surface expression of the respective MHC class I molecules on these cells by stabilizing the peptide-MHC complex; endogenous in cells; host or cells: RMA-S (H-2b) cells
T2 sequence (P01899 25-362): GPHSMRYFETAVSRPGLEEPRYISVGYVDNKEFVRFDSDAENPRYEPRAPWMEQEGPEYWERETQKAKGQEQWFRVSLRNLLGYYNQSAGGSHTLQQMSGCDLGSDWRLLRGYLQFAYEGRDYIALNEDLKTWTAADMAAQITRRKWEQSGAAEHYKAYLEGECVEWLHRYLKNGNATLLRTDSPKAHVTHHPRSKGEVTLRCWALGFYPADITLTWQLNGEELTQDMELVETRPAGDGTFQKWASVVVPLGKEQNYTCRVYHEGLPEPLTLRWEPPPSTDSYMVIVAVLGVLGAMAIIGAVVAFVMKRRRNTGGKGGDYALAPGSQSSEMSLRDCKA
T2 sequence (P01887 21-119 partner): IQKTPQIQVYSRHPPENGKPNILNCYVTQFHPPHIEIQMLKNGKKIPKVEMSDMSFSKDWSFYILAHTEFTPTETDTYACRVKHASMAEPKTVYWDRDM
Experimental: FIG. 1 is a line graph illustrating results of an RMA-S binding assay. KDR2 and KDR3 bind efficiently to H-2 Db molecules. RMA-S cells were loaded with various peptides for 16 to 18 h at 37° C. Levels of surface class I molecules were assessed by flow cytometric analysis using mouse monoclonal antibodies specific for H-2 Db. FI=Fluoresce measurement after peptides stimulation/Fluoresce measurement without peptide-1. : KDR1, ▴: KDR2, : KDR3, ◯: wild type P53 264-272, : HPV 16 E7 49-57. HPV E7 49-57 and Human P53 264-272 serve as positive and negative control respectively. The results shown here are representative of three separate experiments.
To test the binding affinity of these peptides to H-2 Db, an RMA-S binding experiment was performed, and the FI value in the assay was measured. […] The RMA-Binding assays were performed as previously described (Lyman et al., J. Virol. 76:3125-3134, 2002). Briefly, synthetic peptides were dissolved in dimethyl sulfoxide before dilution. For MHC-binding assays, RMA-S cells were loaded with various peptides for 16 to 18 h at 37° C. Levels of surface class I molecules were assessed by flow cytometric analysis (FACScan; Becton Dickinson) using mouse monoclonal antibodies specific for H-2 Db (Southern Biotech, clone No. 28-14-8). FI=Fluorescence after peptides stimulation/Fluorescence without peptide-1.
Previous data have shown that the HPV16E7 49-57 can bind to H-2 Db molecules efficiently and induce a strong CTL response in B6 mice (Feltkamp et al., Eur. J. Immunol. 23:2242-2249, 1993). HPV16E7 49-57 peptide was used as a positive control; and the human P53 264-272, known to bind HLA-A2 but not H-2 Db, was used as a negative control (FIG. 1).

Substance	IFN-γ secreting fresh spleen cells relative to irrelevant HPV E7 peptide / background ([1]; FIG. 2A)	IFN-γ secreting cells per million fresh DLN cells [1]	Percentage of lyses by induced CTLs, control (H5V endothelial cells)	Lysis of H5V cells and peptide-pulsed EL4 by induced CTLs (in words) (H5V endothelial cells)	Percentage of lyses by induced CTLs (H5V endothelial cells)	Percentage of lyses by induced CTLs, control [2]	Percentage of lyses by induced CTLs [2]	Concentration at FI=0.5 (H-2 Db)	Binding to H-2 Db (in words) (H-2 Db)	further results
AMFFWLLLV [KDR775, human VEGFR-2/KDR peptide]	–	–	–	–	–	–	–	–	–	Affinity for MHC molecules relative to the other peptides (in words) (HLA-A2): substantially higher affinity
FSNSTNDILI [KDR3, murine VEGFR-2/KDR peptide, location 615-624]	about 6 times	161 per million cells	3%	can lyse	13%	0%	21%	about 3 μM	bind well	Number of IFN-γ secreting fresh spleen cells after pulsing with peptide ([1]; fresh spleen cells of vaccinated mice, FIG. 2A): 176
HPV16E7 49-57: Human Papilloma Virus 16E7 49-57 peptide, known H-2 Db binder, positive control (RAHYNIVTF) [reference compound]	–	–	–	–	–	–	–	about 12.5 μM	–	–
LLSEKNVVKI [KDR1, murine VEGFR-2/KDR peptide, location 1033-1042]	–	–	–	–	–	–	–	–	–	IFN-γ secreting cells relative to background after 1 week in vitro culture with the vaccinated peptide ([1]; spleen cells restimulated 1 week in vitro, FIG. 2B): remained negative
P53 264-272: human P53 264-272 peptide, binds HLA-A2 but not H-2 Db, negative control [reference compound]	–	–	–	–	–	–	–	> 200 µM	does not bind	–
VILTNPISM [KDR2, murine VEGFR-2/KDR peptide, location 400-408]	about 50 times	360 per million cells	~1%	can lyse	28%	about 8%	25%	about 24 μM	bind well	–
